Reference: patent US8007995B2 (Bristol-Myers Squibb Company, priority 2005, dated 2011)

Tests used:
Experiment in all cases: Proliferation assay (cell counts, growth inhibition)
Format in all cases: cell-based, human
KPL-1 = conditions: Luminal, ER Positive, HER-2 Normal, inhibition at 1 μM
BT-20 = conditions: Basal, ER Negative, HER-2 Normal, inhibition at 1 μM
Excerpt: (§1) The cell lines MDA-MB-415, MDA-MB-134, HCC-1500, ZR-75-30, HCC-202, HCC-1419, HCC-38, HCC-70, HCC-1187, HCC-1806, HCC-1937, HCC-1954, MDA-MB-436, HCC-1569, Hs578t, HCC-1143, MDA-MB-175, BT-474, SK-BR-3, MDA-MB-361, UAC-893, UACC-812, UACC-732, T-47D, MDA-MB-453, MDA-MB-468, CAMA-1, MDA-MB-157, MCF-7, MDA-MB-435, ZR-75-1, BT-20, and MDA-MB-231 were obtained from American Type Culture Collection (Rockville, Md.). The cell lines EFM-192A, KPL-1, EFM-19 and CAL-51 were obtained from the German Tissue Repository DSMZ (Braunschweig Germany), and the cell lines SUM-190 and SUM-225 were obtained from the University of Michigan (Ann Arbor, Mich.). MDA-MB-134, MDA-MB415, MDA-MB-436, MDA-MB-175, UACC-893, UACC-812, and MDA-MB-157 cells were cultured in L15 medium supplemented with 10% heat-inactivated fetal bovine serum (FBS), […] glutamine and 1% penicillin G-streptomycin-fungizone solution (PSF, Irvine Scientific, Santa Ana, Calif.). CAL-51, KPL-1, Hs578t cells were grown in DMEM supplemented with 10% heat-inactivated FBS and PSF, as above. SUM-190 and SUM-225 cells were cultured in HAM's F12 supplemented with 5% heat-inactivated FBS, PSF, […] hydrocortisone. The remaining cell lines were cultured in RPMI 1640 supplemented with 10% heat-inactivated FBS, 2 mmol/L glutamine, and PSF.
(§2) Cells were seeded in duplicate at 5,000 to 10,000 cells per well in 24-well plates. […] Control wells without drug were seeded as well. Both the adherent and floating fractions of cells were counted on days 2, 5 and 7 for both treatment and control wells. After trypsinization cells were placed in Isotone solution and counted immediately using a Coulter Z2 particle counter (Beckman Coulter Inc, Fullerton, Calif.).
(§3) Growth inhibition was calculated [(1-experimental value/control value)×100] for each day adding both the values obtained for the floating cells and the adherent cells. Pearson-Chi-square analysis was performed to identify a correlation between subtype and sensitivity to dasatinib. Dasatinib was a gift from Frank Lee at Bristol-Meyers-Squibb.

BT-474 = conditions: Luminal, ER Positive, HER-2 Amplified, inhibition at 1 μM
Excerpt: as §1, §2, §3

CAL-51 = conditions: Post-EMT, ER Negative, HER-2 Normal, inhibition at 1 μM
Excerpt: as §1, §2, §3

CAMA-1 = conditions: Luminal, ER Positive, HER-2 Normal, inhibition at 1 μM
Excerpt: as §1, §2, §3

EFM-192A = conditions: Luminal, ER Positive, HER-2 Amplified, inhibition at 1 μM
Excerpt: as §1, §2, §3

EFM-19 = conditions: Luminal, ER Positive, HER-2 Normal, inhibition at 1 μM
Excerpt: as §1, §2, §3

HCC 38 = conditions: Basal, ER Negative, HER-2 Normal, inhibition at 1 μM
Excerpt: as §1, §2, §3

HCC-1143 = conditions: Basal, ER Negative, HER-2 Normal, inhibition at 1 μM
Excerpt: as §1, §2, §3

HCC-1187 = conditions: Basal, ER Negative, HER-2 Normal, inhibition at 1 μM
Excerpt: as §1, §2, §3

HCC-1419 = conditions: Luminal, ER Positive, HER-2 Amplified, inhibition at 1 μM
Excerpt: as §1, §2, §3

HCC-1500 = conditions: Luminal, ER Positive, HER-2 Normal, inhibition at 1 μM
Excerpt: as §1, §2, §3

HCC-1569 = conditions: Post-EMT, ER Negative, HER-2 Amplified, inhibition at 1 μM
Excerpt: as §1, §2, §3

HCC-1806 = conditions: Basal, ER Negative, HER-2 Normal, inhibition at 1 μM
Excerpt: as §1, §2, §3

HCC-1937 = conditions: Basal, ER Negative, HER-2 Normal, inhibition at 1 μM
Excerpt: as §1, §2, §3

HCC-1954 = conditions: Basal, ER Negative, HER-2 Amplified, inhibition at 1 μM
Excerpt: as §1, §2, §3

HCC-202 = conditions: Luminal, ER Positive, HER-2 Amplified, inhibition at 1 μM
Excerpt: as §1, §2, §3

HCC-70 = conditions: Basal, ER Negative, HER-2 Normal, inhibition at 1 μM
Excerpt: as §1, §2, §3

Hs578t = conditions: Post-EMT, ER Negative, HER-2 Normal, inhibition at 1 μM
Excerpt: as §1, §2, §3

MCF-7 = conditions: Luminal, ER Positive, HER-2 Normal, inhibition at 1 μM
Excerpt: as §1, §2, §3

MDA-MB-134 = conditions: Luminal, ER Positive, HER-2 Normal, inhibition at 1 μM
Excerpt: as §1, §2, §3

MDA-MB-157 = conditions: Post-EMT, ER Negative, HER-2 Normal, inhibition at 1 μM
Excerpt: as §1, §2, §3

MDA-MB-175 = conditions: Luminal, ER Positive, HER-2 Normal, inhibition at 1 μM
Excerpt: as §1, §2, §3

MDA-MB-231 = conditions: Post-EMT, ER Negative, HER-2 Normal, inhibition at 1 μM
Excerpt: as §1, §2, §3

MDA-MB-361 = conditions: Luminal, ER Positive, HER-2 Amplified, inhibition at 1 μM
Excerpt: as §1, §2, §3

MDA-MB-415 = conditions: Luminal, ER Positive, HER-2 Normal, inhibition at 1 μM
Excerpt: as §1, §2, §3

MDA-MB-435 = conditions: Post-EMT, ER Negative, HER-2 Normal, inhibition at 1 μM
Excerpt: as §1, §2, §3

MDA-MB-436 = conditions: Post-EMT, ER Negative, HER-2 Normal, inhibition at 1 μM
Excerpt: as §1, §2, §3

MDA-MB-453 = conditions: Luminal, ER Negative, HER-2 Amplified, inhibition at 1 μM
Excerpt: as §1, §2, §3

MDA-MB-468 = conditions: Basal, ER Negative, HER-2 Normal, inhibition at 1 μM
Excerpt: as §1, §2, §3

SK-BR-3 = conditions: Luminal, ER Negative, HER-2 Amplified, inhibition at 1 μM
Excerpt: as §1, §2, §3

SUM-190 = conditions: Luminal, ER Negative, HER-2 Amplified, inhibition at 1 μM
Excerpt: as §1, §2, §3

SUM-225 = conditions: Luminal, ER Negative, HER-2 Amplified, inhibition at 1 μM
Excerpt: as §1, §2, §3

T-47D = conditions: Luminal, ER Positive, HER-2 Normal, inhibition at 1 μM
Excerpt: as §1, §2, §3

UACC-732 = conditions: Luminal, ER Positive, HER-2 Amplified, inhibition at 1 μM
Excerpt: as §1, §2, §3

UACC-812 = conditions: Luminal, ER Positive, HER-2 Amplified, inhibition at 1 μM
Excerpt: as §1, §2, §3

UACC-893 = conditions: Luminal, ER Negative, HER-2 Amplified, inhibition at 1 μM
Excerpt: as §1, §2, §3

ZR-75-1 = conditions: Luminal, ER Positive, HER-2 Normal, inhibition at 1 μM
Excerpt: as §1, §2, §3

ZR-75-30 = conditions: Luminal, ER Positive, HER-2 Amplified, inhibition at 1 μM
Excerpt: as §1, §2, §3

Compound: Cc1nc(Nc2ncc(C(=O)Nc3c(C)cccc3Cl)s2)cc(N2CCN(CCO)CC2)n1 [Dasatinib, N-(2-chloro-6-methylphenyl)-2-[[6-[4-(2-hydroxyethyl)-1-piperazinyl]-2-methyl-4-pyrimidinyl]amino]-5-thiazolecarboxamide]
- Response to Dasatinib in vitro (KPL-1): Resistant (<40% inhibition at 1 μM assigned to the resistant group)
- Response to Dasatinib in vitro (BT-20): Resistant (<40% inhibition at 1 μM assigned to the resistant group)
- Response to Dasatinib in vitro (BT-474): Moderately Sensitive (40-59% inhibition being assigned to the moderately sensitive group)
- Response to Dasatinib in vitro (CAL-51): Highly Sensitive (greater than 60% inhibition being assigned to the highly sensitive group)
- Response to Dasatinib in vitro (CAMA-1): Resistant (<40% inhibition at 1 μM assigned to the resistant group)
- Response to Dasatinib in vitro (EFM-192A): Resistant (<40% inhibition at 1 μM assigned to the resistant group)
- Response to Dasatinib in vitro (EFM-19): Moderately Sensitive (40-59% inhibition being assigned to the moderately sensitive group)
- Response to Dasatinib in vitro (HCC 38): Resistant (<40% inhibition at 1 μM assigned to the resistant group)
- Response to Dasatinib in vitro (HCC-1143): Moderately Sensitive (40-59% inhibition being assigned to the moderately sensitive group)
- Response to Dasatinib in vitro (HCC-1187): Moderately Sensitive (40-59% inhibition being assigned to the moderately sensitive group)
- Response to Dasatinib in vitro (HCC-1419): Moderately Sensitive (40-59% inhibition being assigned to the moderately sensitive group)
- Response to Dasatinib in vitro (HCC-1500): Resistant (<40% inhibition at 1 μM assigned to the resistant group)
- Response to Dasatinib in vitro (HCC-1569): Resistant (<40% inhibition at 1 μM assigned to the resistant group)
- Response to Dasatinib in vitro (HCC-1806): Highly Sensitive (greater than 60% inhibition being assigned to the highly sensitive group)
- Response to Dasatinib in vitro (HCC-1937): Moderately Sensitive (40-59% inhibition being assigned to the moderately sensitive group)
- Response to Dasatinib in vitro (HCC-1954): Moderately Sensitive (40-59% inhibition being assigned to the moderately sensitive group)
- Response to Dasatinib in vitro (HCC-202): Resistant (<40% inhibition at 1 μM assigned to the resistant group)
- Response to Dasatinib in vitro (HCC-70): Highly Sensitive (greater than 60% inhibition being assigned to the highly sensitive group)
- Response to Dasatinib in vitro (Hs578t): Highly Sensitive (greater than 60% inhibition being assigned to the highly sensitive group)
- Response to Dasatinib in vitro (MCF-7): Moderately Sensitive (40-59% inhibition being assigned to the moderately sensitive group)
- Response to Dasatinib in vitro (MDA-MB-134): Resistant (<40% inhibition at 1 μM assigned to the resistant group)
- Response to Dasatinib in vitro (MDA-MB-157): Highly Sensitive (greater than 60% inhibition being assigned to the highly sensitive group)
- Response to Dasatinib in vitro (MDA-MB-175): Resistant (<40% inhibition at 1 μM assigned to the resistant group)
- Response to Dasatinib in vitro (MDA-MB-231): Highly Sensitive (greater than 60% inhibition being assigned to the highly sensitive group)
- Response to Dasatinib in vitro (MDA-MB-231; listed as dasatinib): highly sensitive
- Response to Dasatinib in vitro (MDA-MB-361): Moderately Sensitive (40-59% inhibition being assigned to the moderately sensitive group)
- Response to Dasatinib in vitro (MDA-MB-415): Resistant (<40% inhibition at 1 μM assigned to the resistant group)
- Response to Dasatinib in vitro (MDA-MB-435): Highly Sensitive (greater than 60% inhibition being assigned to the highly sensitive group)
- Response to Dasatinib in vitro (MDA-MB-435; listed as dasatinib): highly sensitive
- Response to Dasatinib in vitro (MDA-MB-436): Highly Sensitive (greater than 60% inhibition being assigned to the highly sensitive group)
- Response to Dasatinib in vitro (MDA-MB-453): Resistant (<40% inhibition at 1 μM assigned to the resistant group)
- Response to Dasatinib in vitro (MDA-MB-468): Resistant (<40% inhibition at 1 μM assigned to the resistant group)
- Response to Dasatinib in vitro (MDA-MB-468; listed as dasatinib): resistant
- Response to Dasatinib in vitro (SK-BR-3): Resistant (<40% inhibition at 1 μM assigned to the resistant group)
- Response to Dasatinib in vitro (SUM-190): Resistant (<40% inhibition at 1 μM assigned to the resistant group)
- Response to Dasatinib in vitro (SUM-225): Resistant (<40% inhibition at 1 μM assigned to the resistant group)
- Response to Dasatinib in vitro (T-47D): Moderately Sensitive (40-59% inhibition being assigned to the moderately sensitive group)
- Response to Dasatinib in vitro (UACC-732): Resistant (<40% inhibition at 1 μM assigned to the resistant group)
- Response to Dasatinib in vitro (UACC-812): Resistant (<40% inhibition at 1 μM assigned to the resistant group)
- Response to Dasatinib in vitro (UACC-893): Resistant (<40% inhibition at 1 μM assigned to the resistant group)
- Response to Dasatinib in vitro (ZR-75-1): Resistant (<40% inhibition at 1 μM assigned to the resistant group)
- Response to Dasatinib in vitro (ZR-75-30): Resistant (<40% inhibition at 1 μM assigned to the resistant group)
